Laboratory results taken from the supplement of paper PMC11451515.

System: NOMO1
Experiment: cell viability relative to DMSO control; higher = less cytotoxic
Details: 48 h
Method in brief: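 Cells were incubated for 48 h at 37°C before CellTiter-Glo One luminescence was read. The cells were NOMO1 or SEM (500 cells/well) or P12-Ichikawa (1000 cells/well) leukemia cells, adapted for at least four passages in each medium and seeded in 1536-well plates (5 μl). Dosing used library compounds in DMSO applied by pin over 11 threefold points, 47 μM to 0.79 nM. Viability is the per-plate percentage of DMSO wells, with cell-free wells as background.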

[1] = HPLM + 10% dialyzed FBS, 0.000781 µM
[2] = HPLM + 10% dialyzed FBS, 0.00234 µM
[3] = HPLM + 10% dialyzed FBS, 0.00702 µM
[4] = HPLM + 10% dialyzed FBS, 0.0211 µM
[5] = HPLM + 10% dialyzed FBS, 0.0632 µM
[6] = HPLM + 10% dialyzed FBS, 0.19 µM
[7] = HPLM + 10% dialyzed FBS, 0.569 µM
[8] = HPLM + 10% dialyzed FBS, 1.71 µM
[9] = HPLM + 10% dialyzed FBS, 5.12 µM
[10] = HPLM + 10% dialyzed FBS, 15.4 µM
[11] = HPLM + 10% dialyzed FBS, 46.1 µM
[12] = RPMI 5 mM glucose + 10% dialyzed FBS, 0.000781 µM
[13] = RPMI 5 mM glucose + 10% dialyzed FBS, 0.00234 µM
[14] = RPMI 5 mM glucose + 10% dialyzed FBS, 0.00702 µM
[15] = RPMI 5 mM glucose + 10% dialyzed FBS, 0.0211 µM
[16] = RPMI 5 mM glucose + 10% dialyzed FBS, 0.0632 µM
[17] = RPMI 5 mM glucose + 10% dialyzed FBS, 0.19 µM
[18] = RPMI 5 mM glucose + 10% dialyzed FBS, 0.569 µM
[19] = RPMI 5 mM glucose + 10% dialyzed FBS, 1.71 µM
[20] = RPMI 5 mM glucose + 10% dialyzed FBS, 5.12 µM
[21] = RPMI 5 mM glucose + 10% dialyzed FBS, 15.4 µM
[22] = RPMI 5 mM glucose + 10% dialyzed FBS, 46.1 µM
[23] = RPMI 5 mM glucose + 10% FBS, 0.000781 µM
[24] = RPMI 5 mM glucose + 10% FBS, 0.00234 µM
[25] = RPMI 5 mM glucose + 10% FBS, 0.00702 µM
[26] = RPMI 5 mM glucose + 10% FBS, 0.0211 µM
[27] = RPMI 5 mM glucose + 10% FBS, 0.0632 µM
[28] = RPMI 5 mM glucose + 10% FBS, 0.19 µM
[29] = RPMI 5 mM glucose + 10% FBS, 0.569 µM
[30] = RPMI 5 mM glucose + 10% FBS, 1.71 µM
[31] = RPMI 5 mM glucose + 10% FBS, 5.12 µM
[32] = RPMI 5 mM glucose + 10% FBS, 15.4 µM
[33] = RPMI 5 mM glucose + 10% FBS, 46.1 µM

Row | SMILES | cell viability [1] [%] | cell viability [2] [%] | cell viability [3] [%] | cell viability [4] [%] | cell viability [5] [%] | cell viability [6] [%] | cell viability [7] [%] | cell viability [8] [%] | cell viability [9] [%] | cell viability [10] [%] | cell viability [11] [%] | cell viability [12] [%] | cell viability [13] [%] | cell viability [14] [%] | cell viability [15] [%] | cell viability [16] [%] | cell viability [17] [%] | cell viability [18] [%] | cell viability [19] [%] | cell viability [20] [%] | cell viability [21] [%] | cell viability [22] [%] | cell viability [23] [%] | cell viability [24] [%] | cell viability [25] [%] | cell viability [26] [%] | cell viability [27] [%] | cell viability [28] [%] | cell viability [29] [%] | cell viability [30] [%] | cell viability [31] [%] | cell viability [32] [%] | cell viability [33] [%]
1 | OC1=C(C=CC=C1)C2=CC=C(C=C2)C3=CSC4=C3C(=C(/C#N)C(=O)N4)/O | 119 | 119 | 120 | 102 | 112 | 110 | 119 | 118 | 126 | 105 | 102 | 117 | 123 | 131 | 139 | 122 | 112 | 122 | 119 | 114 | 123 | 109 |  |  |  |  |  |  |  |  |  |  | 
2 | CN(C)c1ccc(C(=O)NCCCCCCC(=O)NO)cc1 | 106 | 103 | 104 | 94.9 | 106 | 83.5 | 112 | 89 | 7.42 | 3.13 | 3.88 | 102 | 103 | 124 | 106 | 112 | 105 | 106 | 89 | 7.05 | 3.1 | 3.05 | 91.1 | 90.6 | 103 | 92.3 | 95.8 | 99.8 | 91.4 | 92 | 6.22 | 2.81 | 2.37
3 | C[C@H]1[C@@H](CC(C[C@H]2O[C@@H]3O[C@]4(C)CC[C@H]5[C@H](C)CC[C@@H]([C@H]2C)[C@@]35OO4)C[S+](=O)([O-])c2ccc(COC(=O)N(C)C)cc2)O[C@@H]2O[C@]3(C)CC[C@H]4[C@H](C)CC[C@@H]1[C@@]24OO3 | 122 | 123 | 116 | 120 | 127 | 110 | 44.8 | 22.5 | 22.3 | 17.9 | 10.8 | 109 | 118 | 100 | 110 | 108 | 91.9 | 32.3 | 22.5 | 24 | 18.8 | 14.8 | 114 | 119 | 113 | 98.9 | 103 | 101 | 82.5 | 28 | 21.8 | 17 | 15.1
4 | COc1ccc(CCC(=O)Nc2nc3ccc(Cl)cc3s2)cc1OC | 120 | 106 | 111 | 135 | 122 | 126 | 123 | 101 | 106 | 122 | 86.2 | 114 | 99.3 | 119 | 108 | 120 | 110 | 106 | 102 | 104 | 98.2 | 91.2 | 107 | 104 | 113 | 105 | 122 | 117 | 113 | 94.4 | 105 | 100 | 96.6
5 | CCCn1c(=O)c2[nH]c(-c3cnn(Cc4cccc(C(F)(F)F)c4)c3)nc2n(CC)c1=O | 111 | 113 | 102 | 125 | 115 | 116 | 96 | 82.4 | 64.1 | 56.4 | 43.5 | 98.6 | 104 | 92.1 | 81.6 | 105 | 103 | 85.3 | 80.6 | 76.9 | 65.2 | 44.7 | 92.7 | 93.1 | 101 | 103 | 103 | 105 | 102 | 98.8 | 82.7 | 69.8 | 61.5
6 | Cl.Cl.Fc1ccc(C(OCCN2CCN(CCCc3ccccc3)CC2)c2ccc(F)cc2)cc1 | 120 | 113 | 127 | 125 | 139 | 123 | 127 | 130 | 104 | 93.1 | 11.3 | 113 | 129 | 113 | 126 | 123 | 135 | 112 | 118 | 122 | 96.4 | 12.9 | 119 | 116 | 116 | 119 | 111 | 109 | 117 | 113 | 108 | 116 | 18.5
7 | c1cc(-c2sc(-c3ccncc3)c(-c3ccncc3)c2-c2ccncc2)ccn1 | 88.1 | 111 | 117 | 111 | 108 | 129 | 140 | 114 | 124 | 116 | 78.3 | 94.1 | 107 | 106 | 104 | 117 | 106 | 114 | 105 | 101 | 90.9 | 92.3 | 118 | 128 | 106 | 105 | 113 | 118 | 127 | 103 | 98.2 | 109 | 93.4
8 | COc1cc2c(NC3CCN(C(C)C)CC3)nc(C3CCCCC3)nc2cc1OCCCN1CCCC1 | 120 | 133 | 123 | 118 | 142 | 128 | 118 | 130 | 111 | 102 | 9.5 |  |  |  |  |  |  |  |  |  |  |  | 107 | 117 | 114 | 129 | 117 | 130 | 134 | 114 | 118 | 115 | 18.2
9 | CCCn1c(=O)c2[nH]c(C34CC5CC3C[C@@H](C5)C4)nc2n(CCC)c1=O | 105 | 62.9 | 92.9 | 112 | 96.2 | 125 | 104 | 105 | 107 | 99.5 | 114 | 99 | 89.2 | 92.9 | 95.5 | 107 | 98.2 | 94.3 | 95.6 | 101 | 94.8 | 100 | 90.5 | 92.6 | 102 | 96.5 | 87.4 | 91.5 | 86.5 | 97.2 | 90.3 | 89.9 | 95.5
10 | c1ccc2c(Oc3nc(Nc4ccc(N5CCOCC5)cc4)c4ncn(C5CCCCC5)c4n3)cccc2c1 |  |  |  |  |  |  |  |  |  |  |  | 102 | 121 | 126 | 143 | 125 | 146 | 139 | 127 | 123 | 124 | 135 | 113 | 117 | 129 | 127 | 126 | 133 | 131 | 149 | 132 | 153 | 136
11 | COc1ccc(Cn2ccc3ccc(C(=O)NO)cc32)cc1 |  |  |  |  |  |  |  |  |  |  |  |  |  |  |  |  |  |  |  |  |  |  | 107 | 121 | 115 | 128 | 124 | 123 | 130 | 137 | 124 | 130 | 128
12 | COc1cc(/C=C/C(=O)CC(=O)/C=C/c2ccc(O)c(OC)c2)ccc1O | 105 | 105 | 118 | 111 | 112 | 123 | 114 | 115 | 99.8 | 42.3 | 5.01 | 105 | 105 | 106 | 106 | 118 | 112 | 104 | 104 | 101 | 79.9 | 10.1 | 97.4 | 93.6 | 103 | 108 | 106 | 105 | 102 | 115 | 102 | 73.2 | 7.35
13 | N#Cc1c(C2CCNCC2)cc(-c2c(O)cccc2OCC2CC2)nc1N | 110 | 116 | 126 | 115 | 103 | 113 | 121 | 104 | 105 | 90.1 | 99.1 | 115 | 101 | 117 | 116 | 111 | 105 | 117 | 104 | 94.2 | 88.3 | 74.4 | 102 | 115 | 104 | 118 | 111 | 104 | 113 | 102 | 93.6 | 88.4 | 80.9
14 | CCC1=C(C)CN(C(=O)NCCc2ccc(S(=O)(=O)NC(=O)N[C@H]3CC[C@H](C)CC3)cc2)C1=O | 97.4 | 93.3 | 105 | 102 | 104 | 112 | 101 | 108 | 87 | 83.3 | 116 | 82.2 | 97.7 | 97.6 | 92.3 | 99.5 | 93 | 96.3 | 94.1 | 99.3 | 92.5 | 104 | 86.3 | 86.4 | 91.1 | 98.4 | 88.3 | 100 | 90.3 | 89.3 | 95.4 | 91.4 | 95.3
15 | CCOc1cc2c(c(F)c1OCC)C(=N)N(CC(=O)c1cc(N3CCOCC3)c(OC)c(C(C)(C)C)c1)C2 | 98.4 | 121 | 118 | 138 | 115 | 148 | 131 | 125 | 142 | 127 | 118 | 113 | 122 | 121 | 129 | 131 | 124 | 124 | 139 | 141 | 138 | 130 | 109 | 112 | 104 | 109 | 130 | 108 | 123 | 121 | 122 | 135 | 126
16 | COC1=CC=C(C=C1)C/2=C/OC3=CC(=CC=C3C2=O)O | 108 | 125 | 114 | 119 | 116 | 119 | 119 | 109 | 83.1 | 67.9 | 43.1 | 122 | 120 | 113 | 106 | 133 | 121 | 101 | 105 | 111 | 104 | 98.4 | 123 | 111 | 121 | 115 | 132 | 114 | 106 | 118 | 102 | 101 | 71.1
